Where two headings read alike, the source gives them in different places.
Tested on: HCV proteins in Rep5.1 cells (replicon cell line)
Test: Inhibitory activity of HCV: cell-based ELISA in replicon cell line Rep5.1 (decrease of HCV proteins)
Parameters: species or system hepatitis C virus
Summary of the method: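 HCV protein loss was quantified by ELISA on methanol/acetone-fixed cells 72 h after drug addition, probing with selected HCV-positive human plasma, and IC50 was defined as 50% reduction relative to untreated wells. The cells were Rep5.1 replicon cells cultured in DMEM-10 with 500 μg/ml G418, plated at 5000 per well and dosed with serial dilutions after 4 h attachment.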

[1] = Hepatitis C virus, 72 h, Rep5.1 cells, 72 hours with drug, concentration at which 50% of HCV proteins was decreased, Table 2, read-out: IC50
[2] = Hepatitis C virus, 72 h, Rep5.1 cells, 72 hours with drug, decrease of HCV proteins measured by HCV antibody, Table 1, read-out: Level (IC50 values classified)
[3] = Rep5.1 cells, 72 hours with drug, concentration at which 50% of HCV proteins was decreased, Table 2, read-out: IC50

| Structure (SMILES) | IC50 [1] [nM] | IC50 [2] [nM] | IC50 [3] [nM] | IC50 (Hepatitis C virus, 72 h) [nM] | IC50 (Hepatitis C virus, 72 h, read-out: Level (IC50 values classified)) [nM] |
| --- | --- | --- | --- | --- | --- |
| CC1=C(C(=O)OCCCc2cccc3ccccc23)C(CO)NC(=S)N1 (stereo not drawn) [24″, 4-hydroxymethyl-6-methyl-2-thioxo-1,2,3,4-tetrahydro-pyrimidine-5-carboxylic acid 3-naphthalen-1-yl-propyl ester] | 800 | < 1000 | – | – | – |
| C=CCC(C=C)OC(=O)C1=C(C)NC(=S)NC1 (stereo not drawn) [Compound 55, 6-methyl-2-thioxo-1,2,3,4-tetrahydro-pyrimidine-5-carboxylic acid 1-vinyl-but-3-enyl ester] | 2500 | 1000 to 10000 | – | – | – |
| CC1=C(C(=O)OCc2cccc(C)c2C)CNC(=S)N1 [Compound 156, 6-methyl-2-thioxo-1,2,3,4-tetrahydro-pyrimidine-5-carboxylic acid 2,3-dimethyl-benzyl ester] | 500 | < 1000 | – | – | – |
| CCCCCCC#CCCOC(=O)C1=C(C)NC(=S)NC1 [Compound 200, 6-methyl-2-thioxo-1,2,3,4-tetrahydro-pyrimidine-5-carboxylic acid dec-3-inyl ester] | – | – | < 400 | – | – |
| COCC1NC(=S)NC(C)=C1C(=O)OCCc1ccsc1 (stereo not drawn) [2″, 4-methoxymethyl-6-methyl-2-thioxo-1,2,3,4-tetrahydro-pyrimidine-5-carboxylic acid 2-thiophen-3-yl-ethyl ester] | 35000 | > 20000 | – | – | – |
| CCc1ccc(CCOC(=O)C2=C(C)NC(=S)NC2CO)cc1F (stereo not drawn) [72″, 4-hydroxymethyl-6-methyl-2-thioxo-1,2,3,4-tetrahydro-pyrimidine-5-carboxylic acid 2-(4-ethyl-3-fluoro-phenyl)-ethyl ester] | 400 | < 1000 | – | – | – |
| CC(=O)OCC1NC(=S)NC(C)=C1C(=O)OCCc1ccsc1 (stereo not drawn) [21″, 4-acetoxymethyl-6-methyl-2-thioxo-1,2,3,4-tetrahydro-pyrimidine-5-carboxylic acid 2-thiophen-3-yl-ethyl ester] | > 100000 | > 20000 | – | – | – |
| COc1ccc(OC)c(COC(=O)C2=C(C)NC(=S)NC2)c1 [Compound 174, 6-methyl-2-thioxo-1,2,3,4-tetrahydro-pyrimidine-5-carboxylic acid 2,5-dimethoxy-benzyl ester] | 7000 | 1000 to 10000 | – | – | – |
| O=C(OCc1ccccc1)C1=C(Cc2ccccc2)NC(=S)NC1 [Compound 18, 6-benzyl-2-thioxo-1,2,3,4-tetrahydro-pyrimidine-5-carboxylic acid benzyl ester] | 5000 | 1000 to 10000 | – | – | – |
| CC1=C(C(=O)OCc2cc(C)cc(C)c2)C(CF)NC(=S)N1 (stereo not drawn) [35′, 4-fluoromethyl-6-methyl-2-thioxo-1,2,3,4-tetrahydro-pyrimidine-5-carboxylic acid 3,5-dimethyl-benzyl ester] | 800 | < 1000 | – | – | – |
| CC1=C(C(=O)OCC#Cc2ccsc2)CNC(=S)N1 [Compound 240, 6-methyl-2-thioxo-1,2,3,4-tetrahydro-pyrimidine-5-carboxylic acid 3-thiophen-3-yl-prop-2-inyl ester] | – | – | < 400 | – | – |
| CC1=C(C(=O)OCc2ccc(-c3ccc([N+](=O)[O-])cc3)o2)CNC(=S)N1 [Compound 128, 6-methyl-2-thioxo-1,2,3,4-tetrahydro-pyrimidine-5-carboxylic acid 5-(4-nitro-phenyl)-furan-2-ylmethyl ester] | 1000 | < 1000 | – | – | – |
| CC1=C(C(=O)OCCCc2ccsc2)C(C(C)O)NC(=S)N1 (stereo not drawn) [15″, 4-(1-hydroxy-ethyl)-6-methyl-2-thioxo-1,2,3,4-tetrahydro-pyrimidine-5-carboxylic acid 3-thiophen-3-yl-propyl ester] | 55000 | > 20000 | – | – | – |
| COc1ccc(COC(=O)C2=C(C)NC(=S)NC2CF)cc1Cl (stereo not drawn) [82′, 4-fluoromethyl-6-methyl-2-thioxo-1,2,3,4-tetrahydro-pyrimidine-5-carboxylic acid 3-chloro-4-methoxy-benzyl ester] | 2500 | 1000 to 10000 | – | – | – |
| CC1=C(C(=O)OC2Cc3cscc3C2)CNC(=S)N1 [11′, 6-methyl-2-thioxo-1,2,3,4-tetrahydro-pyrimidine-5-carboxylic acid 5,6-dihydro-4H-cyclopenta[c]thiophen-5-yl ester] | 77000 | > 20000 | – | – | – |
| CC1=C(C(=O)OCCc2cccc(Cl)c2)C(COC(=O)OCCS(C)(=O)=O)NC(=S)N1 (stereo not drawn) [84″, 4-(2-methanesulfonyl-ethoxycarbonyloxymethyl)-6-methyl-2-thioxo-1,2,3,4-tetrahydro-pyrimidine-5-carboxylic acid 2-(3-chloro-phenyl)-ethyl ester] | 900 | < 1000 | – | – | – |
| CC1=C(C(=O)OCCCc2ccc(F)cc2)CNC(=S)N1 [Compound 103, 6-methyl-2-thioxo-1,2,3,4-tetrahydro-pyrimidine-5-carboxylic acid 3-(4-fluoro-phenyl)-propyl ester] | < 400 | < 1000 | – | – | – |

| Structure (SMILES) | IC50 [1] [nM] | IC50 [2] [nM] | IC50 [3] [nM] | IC50 (Hepatitis C virus, 72 h) [nM] | IC50 (Hepatitis C virus, 72 h, read-out: Level (IC50 values classified)) [nM] |
| --- | --- | --- | --- | --- | --- |
| COc1ccc(COC(=O)C2=C(C)NC(=S)NC2)c(F)c1 [Compound 177, 6-methyl-2-thioxo-1,2,3,4-tetrahydro-pyrimidine-5-carboxylic acid 2-fluoro-4-methoxy-benzyl ester] | 2500 | 1000 to 10000 | – | – | – |
| CC(C)=CCOC(=O)C1=C(C)NC(=S)NC1 [Compound 53, 6-methyl-2-thioxo-1,2,3,4-tetrahydro-pyrimidine-5-carboxylic acid 3-methyl-but-2-enyl ester] | – | – | – | 6600 | 1000 to 10000 |
| CC1=C(C(=O)OCCc2ccsc2)[C@H](CF)NC(=S)N1 [24′, (R)-4-fluoromethyl-6-methyl-2-thioxo-1,2,3,4-tetrahydro-pyrimidine-5-carboxylic acid 2-thiophen-3-yl-ethyl ester] | 4400 | 1000 to 10000 | – | – | – |
| CC1=C(C(=O)OCCc2ccsc2Br)C(CF)NC(=S)N1 (stereo not drawn) [Compound 268, 4-fluoromethyl-6-methyl-2-thioxo-1,2,3,4-tetrahydro-pyrimidine-5-carboxylic acid 2-(2-bromo-thiophen-3-yl)-ethyl ester] | 1000 | 1000 to 10000 | – | – | – |
| CC1=C(C(=O)OCc2ccc([S+](C)[O-])cc2)CNC(=S)N1 (stereo not drawn) [Compound 52, 6-methyl-2-thioxo-1,2,3,4-tetrahydro-pyrimidine-5-carboxylic acid 4-methylsulfinyl-benzyl ester] | 700 | < 1000 | – | – | – |
| CC1=C(C(=O)OCCCCc2ccsc2)C(CF)NC(=S)N1 (stereo not drawn) [61′, 4-fluoromethyl-6-methyl-2-thioxo-1,2,3,4-tetrahydro-pyrimidine-5-carboxylic acid 4-thiophen-3-yl-butyl ester] | 3000 | 1000 to 10000 | – | – | – |
| CC1=C(C(=O)OCCc2cc3c(C)snc3s2)CNC(=S)N1 [5′, 6-methyl-2-thioxo-1,2,3,4-tetrahydro-pyrimidine-5-carboxylic acid 2-(3-methyl-thieno[2,3-c]isothiazol-5-yl)-ethyl ester] | 2500 | 1000 to 10000 | – | – | – |
| CCc1ccc(COC(=O)C2=C(C)NC(=S)NC2)cc1 [Compound 152, 6-methyl-2-thioxo-1,2,3,4-tetrahydro-pyrimidine-5-carboxylic acid 4-ethyl-benzyl ester] | 500 | < 1000 | – | – | – |
| CC1=C(C(=O)OCCc2cccc(Cl)c2)C(COC(=O)OCc2oc(=O)oc2C)NC(=S)N1 (stereo not drawn) [78″, 6-methyl-4-(5-methyl-2-oxo-[1,3]dioxol-4-ylmethoxycarbonyloxymethyl)-2-thioxo-1,2,3,4-tetrahydro-pyrimidine-5-carboxylic acid 2-(3-chloro-phenyl)-ethyl ester] | 800 | < 1000 | – | – | – |
| CCOc1ccccc1CCOC(=O)C1=C(C)NC(=S)NC1 [Compound 273, 6-methyl-2-thioxo-1,2,3,4-tetrahydro-pyrimidine-5-carboxylic acid 2-(2-ethoxy-phenyl)-ethyl ester] | 800 | < 1000 | – | – | – |
| COc1c(C)cc(COC(=O)C2=C(C)NC(=S)NC2)cc1C [Compound 180, 6-methyl-2-thioxo-1,2,3,4-tetrahydro-pyrimidine-5-carboxylic acid 4-methoxy-3,5-dimethyl-benzyl ester] | 800 | < 1000 | – | – | – |
| CC1=C(C(=O)OC(C)Cc2ccsc2Br)C(CO)NC(=S)N1 (stereo not drawn) [7″, 4-hydroxymethyl-6-methyl-2-thioxo-1,2,3,4-tetrahydro-pyrimidine-5-carboxylic acid 2-(2-bromo-thiophen-3-yl)-1-methyl-ethyl ester] | 7000 | 1000 to 10000 | – | – | – |
| CC1=C(C(=O)OCc2cccc(Oc3ccccc3)c2)C(CO)NC(=S)N1 (stereo not drawn) [46″, 4-hydroxymethyl-6-methyl-2-thioxo-1,2,3,4-tetrahydro-pyrimidine-5-carboxylic acid 3-phenoxy-benzyl ester] | < 400 | < 1000 | – | – | – |
| CC1=C(C(=O)OCc2ccc(OC(=O)OC(C)(C)C)cc2)CNC(=S)N1 [Compound 228, 6-methyl-2-thioxo-1,2,3,4-tetrahydro-pyrimidine-5-carboxylic acid 4-t-butoxycarbonyloxy-benzyl ester] | 23000 | 10000 to 20000 | – | – | – |
| CC1=C(C(=O)OCCc2ccc(F)cc2)C(CF)NC(=S)N1 (stereo not drawn) [32′, 4-fluoromethyl-6-methyl-2-thioxo-1,2,3,4-tetrahydro-pyrimidine-5-carboxylic acid 2-(4-fluoro-phenyl)-ethyl ester] | 900 | < 1000 | – | – | – |
| CC(=O)OCC1NC(=S)NC(C)=C1C(=O)OCCCc1cccs1 (stereo not drawn) [23″, 4-acetoxymethyl-6-methyl-2-thioxo-1,2,3,4-tetrahydro-pyrimidine-5-carboxylic acid 3-thiophen-2-yl-propyl ester] | 9000 | 1000 to 10000 | – | – | – |
| CCCCCCC(C)OC(=O)C1=C(C)NC(=S)NC1 (stereo not drawn) [Compound 35, 6-methyl-2-thioxo-1,2,3,4-tetrahydro-pyrimidine-5-carboxylic acid 1-methyl-heptyl ester] | < 500 | < 1000 | – | – | – |

— patent US20060116390A1, “Hepatitis c virus inhibitors” (priority 2003, published 2006)
